Experimental findings from patent publication US20260365682A1, “MODULATORS OF TNF-ALPHA ACTIVITY” (Forward Therapeutics, Inc., priority 2022, published 2026) are described below.

Read-outs that look alike come from different tables or passages of the source.

The test deals with T1, TNF-α (Homo sapiens, UniProt P01375).
T1 construct: purchased R&D 210-TA-020/CF
The experiment in a line: TNF-α Induced HEK Blue Cellular Assay (secreted alkaline phosphatase expression, QUANTI-Blue). The conditions noted are these: HEK Blue TNFα reporter cells, TNF-α 100 μg/ml, 24 hrs at 37° C., inhibition of secreted alkaline phosphatase. The class given is cell-based. An outline of the steps:
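HEK Blue TNFα reporter cells (10,000/well) in DMEM with 10% FBS received compound ([…] to 0.5 nM final) and TNF-α at […] final for 24 h at 37° C. Secreted alkaline phosphatase read with QUANTI-Blue at 620 nm. IC50 came from a 4-parameter logistic fit after normalising to unstimulated and stimulated DMSO controls.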

T1 sequence (P01375 77-233 limits assumed): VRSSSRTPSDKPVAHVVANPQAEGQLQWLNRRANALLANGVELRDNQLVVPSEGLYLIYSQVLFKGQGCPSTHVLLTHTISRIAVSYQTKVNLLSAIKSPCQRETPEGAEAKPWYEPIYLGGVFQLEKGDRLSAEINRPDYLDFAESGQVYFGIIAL

A word on the IC50: it is the concentration needed to halve the response being measured. With `[2H]C([2H])([2H])N1C(=O)c2cccc(OC(F)F)c2[C@H]2C[C@@H]1c1nc3ccc(C#CC4(C)COC4)c(F)c3n12` [Example 146, (7R,14R)-1-(difluoromethoxy)-12-fluoro-6-(methyl-d3)-11-((3-methyloxetan-3-yl)ethynyl)-6,7-dihydro-7,14-methanobenzo[f]benzo[4,5]imidazo[1,2-a][1,4]diazocin-5(14H)-one], the IC50 (read-out: IC50 value) lay within 100 to 1000 nM.
Molecule `[2H]C([2H])([2H])N1C(=O)c2cccc(OC(F)F)c2[C@H]2C[C@@H]1c1nc3ccc(C#CC(=O)OCC)cc3n12` [Example 40, ethyl 3-((7R,14R)-1-(difluoromethoxy)-6-(methyl-d3)-5-oxo-5,6,7,14-tetrahydro-7,14-methanobenzo[f]benzo[4,5]imidazo[1,2-a][1,4]diazocin-11-yl)propiolate] yielded an IC50 (IC50 value) of less than 100 nM.
In the case of `[2H]C([2H])([2H])N1C(=O)c2cccc(OC(F)F)c2[C@H]2C[C@@H]1c1nc3ccc(C#CCCC(C)(C)O)cc3n12` [Example 93, (7R,14R)-1-(difluoromethoxy)-11-(5-hydroxy-5-methylhex-1-yn-1-yl)-6-(methyl-d3)-6,7-dihydro-7,14-methanobenzo[f]benzo[4,5]imidazo[1,2-a][1,4]diazocin-5(14H)-one], the IC50 (read-out: IC50 value) is less than 100 nM.
Same read-out and setting: as for `[2H]C([2H])([2H])N1C(=O)c2cccc(OC(F)F)c2[C@H]2C[C@@H]1c1nc3ccc(C#CC(C)OCC)cc3n12` (stereo partly drawn) [Example 78, (7R,14R)-1-(difluoromethoxy)-11-(3-ethoxybut-1-yn-1-yl)-6-(methyl-d3)-6,7-dihydro-7,14-methanobenzo[f]benzo[4,5]imidazo[1,2-a][1,4]diazocin-5(14H)-one], the figure is 100 to 1000 nM; as for `[2H]C([2H])([2H])N1C(=O)c2cccc(OC(F)F)c2[C@H]2C[C@@H]1c1nc3ccc(C#CCC(C)O)cc3n12` (single isomer, unassigned) [Example 140, (7R,14R)-1-(difluoromethoxy)-11-((S or R)-4-hydroxypent-1-yn-1-yl)-6-(methyl-d3)-6,7-dihydro-7,14-methanobenzo[f]benzo[4,5]imidazo[1,2-a][1,4]diazocin-5(14H)-one], less than 100 nM; as for `[2H]C([2H])([2H])N1C(=O)c2cccc(OC(F)F)c2[C@H]2C[C@@H]1c1nc3ccc(C#CC4(C)CCN(C(=O)C(C)(C)O)C4)cc3n12` (stereo partly drawn) [Example 192, (7R,14R)-1-(difluoromethoxy)-11-((1-(2-hydroxy-2-methylpropanoyl)-3-methylpyrrolidin-3-yl)ethynyl)-6-(methyl-d3)-6,7-dihydro-7,14-methanobenzo[f]benzo[4,5]imidazo[1,2-a][1,4]diazocin-5(14H)-one], 10000 to 30000 nM.
Take `[2H]C([2H])([2H])N1C(=O)c2cccc(OC(F)F)c2[C@H]2C[C@@H]1c1nc3ccc(C#CCN4CCOCC4)cc3n12` [Example 229, (7R,14R)-1-(difluoromethoxy)-6-(methyl-d3)-11-(3-morpholinoprop-1-yn-1-yl)-6,7-dihydro-7,14-methanobenzo[f]benzo[4,5]imidazo[1,2-a][1,4]diazocin-5(14H)-one]: the IC50 (read-out: IC50 value) lay in the range of 100 to 1000 nM.
With `[2H]C([2H])([2H])N1C(=O)c2cccc(OC(F)F)c2[C@H]2C[C@@H]1c1nc3ccc(C#CCC(F)(F)F)cc3n12` [Example 108, (7R,14R)-1-(difluoromethoxy)-6-(methyl-d3)-11-(4,4,4-trifluorobut-1-yn-1-yl)-6,7-dihydro-7,14-methanobenzo[f]benzo[4,5]imidazo[1,2-a][1,4]diazocin-5(14H)-one], the IC50 (read-out: IC50 value) was less than 100 nM.
Consider `[2H]C([2H])([2H])N1C(=O)c2cccc(OC(F)F)c2[C@H]2C[C@@H]1c1nc3ccc(C#CC4(CO)CC4)cc3n12` [Example 130, (7R,14R)-1-(difluoromethoxy)-11-((1-(hydroxymethyl)cyclopropyl)ethynyl)-6-(methyl-d3)-6,7-dihydro-7,14-methanobenzo[f]benzo[4,5]imidazo[1,2-a][1,4]diazocin-5(14H)-one], for which, where the note is “read-out: IC50 value”, the half-maximal inhibitory concentration (IC50) lay in the range of 100 to 1000 nM.
Take `[2H]C([2H])([2H])N1C(=O)c2cccc(OC(F)F)c2[C@H]2C[C@@H]1c1nc3ccc(C#CC4CN(C(=O)C5(O)CC5)C4)cc3n12` [Example 195, (7R,14R)-1-(difluoromethoxy)-11-((1-(1-hydroxycyclopropane-1-carbonyl)azetidin-3-yl)ethynyl)-6-(methyl-d3)-6,7-dihydro-7,14-methanobenzo[f]benzo[4,5]imidazo[1,2-a][1,4]diazocin-5(14H)-one]: the IC50 (read-out: IC50 value) is less than 100 nM.
Consider `[2H]C([2H])([2H])N1C(=O)c2cccc(OC(F)F)c2[C@H]2C[C@@H]1c1nc3ccc(C#CCC(C)(C)O)cc3n12` [Example 82, (7R,14R)-1-(difluoromethoxy)-11-(4-hydroxy-4-methylpent-1-yn-1-yl)-6-(methyl-d3)-6,7-dihydro-7,14-methanobenzo[f]benzo[4,5]imidazo[1,2-a][1,4]diazocin-5(14H)-one], for which the IC50 (read-out: IC50 value) was in the range of 10000 to 30000 nM.
Turning to `[2H]C([2H])([2H])N1C(=O)c2cccc(OC(F)F)c2[C@H]2C[C@@H]1c1nc3ccc(C#CCN4CCC(F)(F)C4)cc3n12` [Example 230, (7R,14R)-1-(difluoromethoxy)-11-(3-(3,3-difluoropyrrolidin-1-yl)prop-1-yn-1-yl)-6-(methyl-d3)-6,7-dihydro-7,14-methanobenzo[f]benzo[4,5]imidazo[1,2-a][1,4]diazocin-5(14H)-one], for the setting “read-out: IC50 value”, the IC50 was less than 100 nM.
As for `[2H]C([2H])([2H])N1C(=O)c2cccc(OC(F)F)c2[C@H]2C[C@@H]1c1nc3ccc(C#C[C@H](C)CO)cc3n12` [Example 129, (7R,14R)-1-(difluoromethoxy)-11-((S)-4-hydroxy-3-methylbut-1-yn-1-yl)-6-(methyl-d3)-6,7-dihydro-7,14-methanobenzo[f]benzo[4,5]imidazo[1,2-a][1,4]diazocin-5(14H)-one], the IC50 (read-out: IC50 value) was less than 100 nM.
Same read-out and setting: as for `[2H]C([2H])([2H])N1C(=O)c2cccc(OC(F)F)c2[C@H]2C[C@@H]1c1nc3ccc(C#CC4CCCN(C(C)=O)C4)cc3n12` (stereo partly drawn) [Example 183, (7R,14R)-11-((1-acetylpiperidin-3-yl)ethynyl)-1-(difluoromethoxy)-6-(methyl-d3)-6,7-dihydro-7,14-methanobenzo[f]benzo[4,5]imidazo[1,2-a][1,4]diazocin-5(14H)-one], the figure is less than 100 nM; as for `[2H]C([2H])([2H])N1C(=O)c2cccc(OC(F)F)c2[C@H]2C[C@@H]1c1nc3ccc(C#CC(N)CC(C)(C)O)cc3n12` (single isomer, unassigned) [Example 217, (7R,14R)-11-((R or S)-3-amino-5-hydroxy-5-methylhex-1-yn-1-yl)-1-(difluoromethoxy)-6-(methyl-d3)-6,7-dihydro-7,14-methanobenzo[f]benzo[4,5]imidazo[1,2-a][1,4]diazocin-5(14H)-one], 10000 to 30000 nM.
For the molecule `[2H]C([2H])([2H])N1C(=O)c2cccc(OC(F)F)c2[C@H]2C[C@@H]1c1nc3ccc(C#CC#N)cc3n12` [Example 262, 3-((7R,14R)-1-(difluoromethoxy)-6-(methyl-d3)-5-oxo-5,6,7,14-tetrahydro-7,14-methanobenzo[f]benzo[4,5]imidazo[1,2-a][1,4]diazocin-11-yl)propiolonitrile], the IC50 (read-out: IC50 value) is less than 100 nM.
On to `[2H]C([2H])([2H])N1C(=O)c2cccc(OC(F)F)c2[C@H]2C[C@@H]1c1nc3ccc(C#CC4CN(C(=O)C5CC5(F)F)C4)cc3n12` (stereo partly drawn) [Example 194, (7R,14R)-11-((1-(2,2-difluorocyclopropane-1-carbonyl)azetidin-3-yl)ethynyl)-1-(difluoromethoxy)-6-(methyl-d3)-6,7-dihydro-7,14-methanobenzo[f]benzo[4,5]imidazo[1,2-a][1,4]diazocin-5(14H)-one], for which the IC50 (read-out: IC50 value) was 10000 to 30000 nM.
As for `[2H]C([2H])([2H])N1C(=O)c2cccc(OC(F)F)c2[C@H]2C[C@@H]1c1nc3c(F)cc(C#CC4(C)COC4)cc3n12` [Example 145, (7R,14R)-1-(difluoromethoxy)-9-fluoro-6-(methyl-d3)-11-((3-methyloxetan-3-yl)ethynyl)-6,7-dihydro-7,14-methanobenzo[f]benzo[4,5]imidazo[1,2-a][1,4]diazocin-5(14H)-one], the IC50 (read-out: IC50 value) is less than 100 nM.
`[2H]C([2H])([2H])N1C(=O)c2cccc(OC(F)F)c2[C@H]2C[C@@H]1c1nc3ccc(C#Cc4cncn4C)cc3n12` [Example 17, (7R,14R)-1-(difluoromethoxy)-6-(methyl-d3)-11-((1-methyl-1H-imidazol-5-yl)ethynyl)-6,7-dihydro-7,14-methanobenzo[f]benzo[4,5]imidazo[1,2-a][1,4]diazocin-5(14H)-one]: the IC50 (read-out: IC50 value) is less than 100 nM.
As for `[2H]C([2H])([2H])N1C(=O)c2cccc(OC(F)F)c2[C@H]2C[C@@H]1c1nc3ccc(C#Cc4ccc(NC(C)=O)nc4)cc3n12` [Example 255, N-(5-(((7R,14R)-1-(difluoromethoxy)-6-(methyl-d3)-5-oxo-5,6,7,14-tetrahydro-7,14-methanobenzo[f]benzo[4,5]imidazo[1,2-a][1,4]diazocin-11-yl)ethynyl)pyridin-2-yl)acetamide], the IC50 (read-out: IC50 value) was less than 100 nM.
For the setting “IC50 value”, `[2H]C([2H])([2H])N1C(=O)c2cccc(OC(F)F)c2[C@H]2C[C@@H]1c1nc3ccc(C#CCCC)cc3n12` [Example 88, (7R,14R)-1-(difluoromethoxy)-6-(methyl-d3)-11-(pent-1-yn-1-yl)-6,7-dihydro-7,14-methanobenzo[f]benzo[4,5]imidazo[1,2-a][1,4]diazocin-5(14H)-one] came in with an IC50 of less than 100 nM.
Turning to `[2H]C([2H])([2H])N1C(=O)c2cccc(OC(F)F)c2[C@H]2C[C@@H]1c1nc3ccc(C#CC4(C)CCOC4)cc3n12` (stereo partly drawn) [Example 212, (7R,14R)-1-(difluoromethoxy)-6-(methyl-d3)-11-((3-methyltetrahydrofuran-3-yl)ethynyl)-6,7-dihydro-7,14-methanobenzo[f]benzo[4,5]imidazo[1,2-a][1,4]diazocin-5(14H)-one], the concentration for half-maximal inhibition (IC50) (read-out: IC50 value) fell in the range of 100 to 1000 nM.
